#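 All cell lines were grown in 96-well plates and treated with compound for 48 hours. TGI: total growth inhibition.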
# Assays:
# Assay in all cases: NCI-60 cell line screen, 48 h
# [1] = system: KM20L2 colon
# [2] = system: DMS 114 small cell lung
# [3] = system: NCI-H23 lung
# [4] = system: KM12 colon
# [5] = system: SF-268 CNS
# [6] = system: LOX IMVI melanoma
# [7] = system: LXFL 529 NSCLC
# [8] = system: RXF 393 renal
# [9] = system: HOP-62 NSCLC
# [10] = system: SNB-78 CNS
# [11] = system: K-562 leukemia
# [12] = system: 786-0 renal
# [13] = system: RPMI-8226 leukemia
# [14] = system: SW-620 colon
# [15] = system: SNB-75 CNS
# [16] = system: HCT-116 colon
# [17] = system: COLO 205 colon
# [18] = system: SK-OV-3 ovarian
# [19] = system: NCI-H522 lung
# [20] = system: MOLT-4 leukemia
# [21] = system: M14 melanoma
# [22] = system: SK-MEL-28 melanoma
# [23] = system: OVCAR-3 ovarian
# [24] = system: SF-539 CNS
# [25] = system: DLD-1 colon
# [26] = system: IGROV1 ovarian
# [27] = system: HT29 colon
# [28] = system: UACC-62 melanoma
# [29] = system: U251 CNS
# [30] = system: M19-MEL melanoma
# [31] = system: SN12C renal
# [32] = system: HL-60(TB) leukemia
# [33] = system: XF 498 CNS
# [34] = system: OVCAR-8 ovarian
# [35] = system: HCC-2998 colon
# [36] = system: HOP-18 NSCLC
# [37] = system: CCRF-CEM leukemia
# [38] = system: SK-MEL-5 melanoma
# [39] = system: SF-295 CNS
# [40] = system: DMS 273 small cell lung
# [41] = system: EKVX NSCLC
# [42] = system: NCI-H226 lung
# [43] = system: OVCAR-4 ovarian
# [44] = system: A549 NSCLC
# [45] = system: SNB-19 CNS
# [46] = system: NCI-H460 lung
# [47] = system: TK-10 renal
# [48] = system: SK-MEL-2 melanoma
# [49] = system: HOP-92 NSCLC
# [50] = system: ACHN renal
# [51] = system: MALME-3M melanoma
# [52] = system: UACC-257 melanoma
# [53] = system: HCT-15 colon
# [54] = system: OVCAR-5 ovarian
# [55] = system: UO-31 renal
# [56] = system: A498 renal
# [57] = system: CAKI-1 renal
smiles,measurement,setting,value
O=[P+](O)c1cc2c3ccccc3ccc2c2ccccc12,TGI,[1],> 100 µM
same,TGI,[2],> 100 µM
same,TGI,[3],> 100 µM
same,TGI,[4],> 100 µM
same,TGI,[5],> 100 µM
same,TGI,[6],> 100 µM
same,TGI,[7],> 100 µM
same,TGI,[8],> 100 µM
same,TGI,[9],> 100 µM
same,TGI,[10],> 100 µM
same,TGI,[11],> 100 µM
same,TGI,[12],> 100 µM
same,TGI,[13],> 100 µM
same,TGI,[14],> 100 µM
same,TGI,[15],> 100 µM
same,TGI,[16],> 100 µM
same,TGI,[17],> 100 µM
same,TGI,[18],> 100 µM
same,TGI,[19],> 100 µM
same,TGI,[20],> 100 µM
same,TGI,[21],> 100 µM
same,TGI,[22],> 100 µM
same,TGI,[23],> 100 µM
same,TGI,[24],> 100 µM
same,TGI,[25],> 100 µM
same,TGI,[26],> 100 µM
same,TGI,[27],> 100 µM
same,TGI,[28],> 100 µM
same,TGI,[29],> 100 µM
same,TGI,[30],> 100 µM
same,TGI,[31],> 100 µM
same,TGI,[32],> 100 µM
same,TGI,[33],> 100 µM
same,TGI,[34],> 100 µM
same,TGI,[35],> 100 µM
same,TGI,[36],> 100 µM
same,TGI,[37],> 100 µM
same,TGI,[38],> 100 µM
same,TGI,[39],> 100 µM
same,TGI,[40],> 100 µM
same,TGI,[41],> 100 µM
same,TGI,[42],94.2 µM
same,TGI,[43],> 100 µM
same,TGI,[44],> 100 µM
same,TGI,[45],> 100 µM
same,TGI,[46],> 100 µM
same,TGI,[47],> 100 µM
CC(C(=O)C(C)O[Si](c1ccccc1)(c1ccccc1)C(C)(C)C)=P(c1ccccc1)(c1ccccc1)c1ccccc1 (stereo unspecified),TGI,[1],8.66 µM
same,TGI,[2],6.25 µM
same,TGI,[48],7.64 µM
same,TGI,[3],15.5 µM
same,TGI,[4],12.9 µM
same,TGI,[6],11.1 µM
same,TGI,[7],11.7 µM
same,TGI,[49],4.74 µM
same,TGI,[50],14.6 µM
same,TGI,[51],12 µM
same,TGI,[9],9.23 µM
same,TGI,[10],13.3 µM
same,TGI,[11],12.3 µM
same,TGI,[52],13.5 µM
same,TGI,[12],15.4 µM
same,TGI,[13],6.58 µM
same,TGI,[14],15.4 µM
same,TGI,[15],8.11 µM
same,TGI,[16],10.6 µM
same,TGI,[17],3.45 µM
same,TGI,[18],6.81 µM
same,TGI,[53],18.8 µM
same,TGI,[20],13.5 µM
same,TGI,[21],14.7 µM
same,TGI,[23],9.38 µM
same,TGI,[24],13.4 µM
same,TGI,[25],14.9 µM
same,TGI,[26],13.9 µM
same,TGI,[27],11.5 µM
same,TGI,[28],14.4 µM
same,TGI,[29],14.1 µM
same,TGI,[30],11.4 µM
same,TGI,[31],13.5 µM
same,TGI,[32],4.24 µM
same,TGI,[33],8.76 µM
same,TGI,[34],14.2 µM
same,TGI,[54],24.9 µM
same,TGI,[35],12.3 µM
same,TGI,[36],9.93 µM
same,TGI,[55],17.2 µM
same,TGI,[37],15.8 µM
same,TGI,[38],8.12 µM
same,TGI,[39],10.3 µM
same,TGI,[41],29.2 µM
same,TGI,[42],10.6 µM
same,TGI,[56],16.1 µM
same,TGI,[43],13.9 µM
same,TGI,[44],13.3 µM
same,TGI,[45],14.5 µM
same,TGI,[46],13.4 µM
same,TGI,[47],16.9 µM
CCc1cc2c(c3[nH]ccc13)[C@@H](C)C[C@H]2C,TGI,[2],43.4 µM
same,TGI,[3],37.8 µM
same,TGI,[4],36.5 µM
same,TGI,[6],25.3 µM
same,TGI,[7],32.8 µM
same,TGI,[49],32.6 µM
same,TGI,[8],28.7 µM
same,TGI,[50],30.9 µM
same,TGI,[51],35.4 µM
same,TGI,[10],34.6 µM
same,TGI,[11],45 µM
same,TGI,[52],39.9 µM
same,TGI,[12],28.2 µM
same,TGI,[13],46 µM
same,TGI,[14],41 µM
same,TGI,[15],38 µM
same,TGI,[16],30.1 µM
same,TGI,[17],38.1 µM
same,TGI,[18],54.9 µM
same,TGI,[53],30.9 µM
same,TGI,[19],31.9 µM
same,TGI,[20],38.2 µM
same,TGI,[21],34.4 µM
same,TGI,[22],30 µM
same,TGI,[23],37.1 µM
same,TGI,[25],36.3 µM
same,TGI,[26],36.2 µM
same,TGI,[27],43.8 µM
same,TGI,[28],32 µM
same,TGI,[29],31.6 µM
same,TGI,[30],32.2 µM
same,TGI,[31],29.8 µM
same,TGI,[32],48.8 µM
same,TGI,[34],41.1 µM
same,TGI,[35],38.3 µM
same,TGI,[36],37.2 µM
same,TGI,[55],32.3 µM
same,TGI,[37],43.4 µM
same,TGI,[38],31.9 µM
same,TGI,[57],34.7 µM
same,TGI,[39],35.2 µM
same,TGI,[40],32.7 µM
same,TGI,[41],44.6 µM
same,TGI,[42],31.8 µM
same,TGI,[56],30.2 µM
same,TGI,[44],42.2 µM
same,TGI,[46],29.4 µM
same,TGI,[47],36.8 µM
COc1ccc2nc(NC(=O)C(=O)C(C#N)c3ccc(CC#N)cc3)sc2c1 (stereo unspecified),TGI,[1],> 100 µM
same,TGI,[48],> 100 µM
same,TGI,[3],> 100 µM
same,TGI,[4],> 100 µM
same,TGI,[5],> 100 µM
same,TGI,[6],> 100 µM
same,TGI,[7],> 100 µM
same,TGI,[49],> 100 µM
same,TGI,[8],> 100 µM
same,TGI,[50],> 100 µM
same,TGI,[51],> 100 µM
same,TGI,[9],> 100 µM
same,TGI,[10],> 100 µM
same,TGI,[11],> 100 µM
same,TGI,[52],> 100 µM
same,TGI,[12],> 100 µM
same,TGI,[13],> 100 µM
same,TGI,[14],> 100 µM
same,TGI,[15],> 100 µM
same,TGI,[16],> 100 µM
same,TGI,[17],> 100 µM
same,TGI,[18],> 100 µM
same,TGI,[53],> 100 µM
same,TGI,[19],> 100 µM
same,TGI,[20],> 100 µM
same,TGI,[21],> 100 µM
same,TGI,[22],> 100 µM
same,TGI,[23],> 100 µM
same,TGI,[24],> 100 µM
same,TGI,[25],> 100 µM
same,TGI,[26],> 100 µM
same,TGI,[27],> 100 µM
same,TGI,[28],> 100 µM
same,TGI,[29],> 100 µM
same,TGI,[30],> 100 µM
same,TGI,[31],> 100 µM
same,TGI,[32],> 100 µM
same,TGI,[34],> 100 µM
same,TGI,[54],> 100 µM
same,TGI,[35],> 100 µM
same,TGI,[36],> 100 µM
same,TGI,[55],> 100 µM
same,TGI,[37],> 100 µM
same,TGI,[38],> 100 µM
same,TGI,[57],> 100 µM
same,TGI,[39],> 100 µM
same,TGI,[40],> 100 µM
same,TGI,[41],> 100 µM
same,TGI,[42],> 100 µM
same,TGI,[56],> 100 µM
same,TGI,[43],> 100 µM
same,TGI,[44],> 100 µM
same,TGI,[45],> 100 µM
same,TGI,[46],> 100 µM
same,TGI,[47],> 100 µM

# From PubChem BioAssay (NCI)
